Values after ≈ are worked out from the molar mass of the structure shown. Like-named read-outs stand apart in the source and are kept apart here.
Legend:
Escherichia coli 851E = test: Minimum inhibitory concentration (agar 2-fold dilution); assay type: cell-based; conditions: E. coli 851E, Muller-Hinton agar, 37° C., 20 hours
Description: (§1) The minimum inhibitory concentration was determined by diluting the test compounds according to 2-fold dilution, suspending them in Muller-Hinton agar medium, inoculating 2 μl of the suspension containing the test strains having 10^7 CFU (Colony Forming Unit) per 1 ml into the medium and then culturing the test strains at 37° C. for 20 hours.

[1] = test system: Escherichia coli TEM9 2639E; test: as above; assay type: cell-based; conditions: TEM92639E, 20 h, read-out: Minimum Inhibitory Concentration
Description: as §1

Escherichia coli 10536 = test: as above; assay type: cell-based; conditions: Escherichia coli; E. coli 10536; Muller-Hinton agar, 37° C., 20 hours; read-out: Minimum Inhibitory Concentration
Description: as §1

[2] = test system: Escherichia coli TEM5 3739E; test: as above; assay type: cell-based; conditions: TEM53739E, 20 h, read-out: Minimum Inhibitory Concentration
Description: as §1

Staphylococcus aureus 77 = test: as above; assay type: cell-based; conditions: Staphylococcus aureus; S. aureus 77; Muller-Hinton agar, 37° C., 20 hours; read-out: Minimum Inhibitory Concentration
Description: as §1

[3] = test system: Staphylococcus aureus 6538P; test: as above; assay type: cell-based; conditions: S. aureus 6538P, Muller-Hinton agar, 37° C., 20 hours, read-out: Minimum Inhibitory Concentration
Description: as §1

[4] = test system: Pseudomonas aeruginosa 1912E; test: as above; assay type: cell-based; conditions: P. aeruginosa 1912E, Muller-Hinton agar, 37° C., 20 hours, read-out: Minimum Inhibitory Concentration
Description: as §1

[5] = test system: Escherichia coli TEM7 3457E; test: as above; assay type: cell-based; conditions: TEM73457E, 20 h, read-out: Minimum Inhibitory Concentration
Description: as §1

[6] = test system: Escherichia coli TEM3 3455E; test: as above; assay type: cell-based; conditions: TEM33455E, 20 h, read-out: Minimum Inhibitory Concentration
Description: as §1

[7] = test system: Escherichia coli TEM1 1193E; test: as above; assay type: cell-based; conditions: TEM11193E, 20 h, read-out: Minimum Inhibitory Concentration
Description: as §1

[8] = test system: Streptococcus faecalis 29212A; test: as above; assay type: cell-based; conditions: Enterococcus faecalis; S. faecalis 29212A; Muller-Hinton agar, 37° C., 20 hours; read-out: Minimum Inhibitory Concentration
Description: as §1

[9] = test system: Staphylococcus aureus giorgio; test: as above; assay type: cell-based; conditions: read-out: Minimum Inhibitory Concentration
Description: as §1

[10] = test system: Pseudomonas aeruginosa 6065; test: as above; assay type: cell-based; conditions: Pseudomonas aeruginosa; P. aeruginosa 6065; Muller-Hinton agar, 37° C., 20 hours; read-out: Minimum Inhibitory Concentration
Description: as §1

[11] = test system: Acinetobacter calcoaceticus 15473A; test: as above; assay type: cell-based; conditions: A. calcoaceticus 15473A, Muller-Hinton agar, 37° C., 20 hours, read-out: Minimum Inhibitory Concentration
Description: as §1

Enterobacter cloacae P99 = test: as above; assay type: cell-based; conditions: P99, 20 h, read-out: Minimum Inhibitory Concentration
Description: as §1

[12] = test system: Salmonella typhimurium 14028A; test: as above; assay type: cell-based; conditions: Salmonella enterica; S. typhimurium 14028A; Muller-Hinton agar, 37° C., 20 hours; read-out: Minimum Inhibitory Concentration
Description: as §1

[13] = test system: Klebsiella aerogenes K1 + 1082E; test: as above; assay type: cell-based; conditions: 20 h, read-out: Minimum Inhibitory Concentration
Description: as §1

[14] = test system: Serratia marcescens 1826E; test: as above; assay type: cell-based; conditions: S. marcescens 1826E, Muller-Hinton agar, 37° C., 20 hours, read-out: Minimum Inhibitory Concentration
Description: as §1

[15] = test system: Citrobacter diversus 2046E; test: as above; assay type: cell-based; conditions: Citrobacter koseri; C. diversus 2046E; Muller-Hinton agar, 37° C., 20 hours; read-out: Minimum Inhibitory Concentration
Description: as §1

Escherichia coli 3190Y = test: as above; assay type: cell-based; conditions: read-out: Minimum Inhibitory Concentration
Description: as §1

[16] = test system: Staphylococcus aureus epidermidis 887E; test: as above; assay type: cell-based; conditions: S. aureus epidermidis 887E, Muller-Hinton agar, 37° C., 20 hours, read-out: Minimum Inhibitory Concentration
Description: as §1

[17] = test system: Enterobacter cloacae IND + VE 1194E; test: as above; assay type: cell-based; conditions: E. cloacae IND + VE 1194E, Muller-Hinton agar, 37° C., 20 hours, read-out: Minimum Inhibitory Concentration
Description: as §1

Proteus vulgaris 6059A = test: as above; assay type: cell-based; conditions: P. vulgaris 6059A, Muller-Hinton agar, 37° C., 20 hours, read-out: Minimum Inhibitory Concentration
Description: as §1

[18] = test system: Klebsiella aerogenes SHV-1 1976E; test: as above; assay type: cell-based; conditions: SHV11976E, K. aerogenes SHV-1 1976E, Muller-Hinton agar, 37° C., 20 hours
Description: as §1

[19] = test system: Pseudomonas aeruginosa 10145; test: as above; assay type: cell-based; conditions: Pseudomonas aeruginosa; P. aeruginosa 10145; Muller-Hinton agar, 37° C., 20 hours; read-out: Minimum Inhibitory Concentration
Description: as §1

[20] = test system: Staphylococcus aureus 241; test: as above; assay type: cell-based; conditions: Staphylococcus aureus; S. aureus 241; Muller-Hinton agar, 37° C., 20 hours; read-out: Minimum Inhibitory Concentration
Description: as §1

[21] = Pharmacokinetic properties in rats (blood concentration by agar well biological assay); set-up: species or system SD rats (male); conditions: rat, in vivo, iv, 20 mg/kg
Description: The pharmacokinetic properties of the compound of the present invention were determined using SD rats (.male.) weighing 230±10 g. Specifically,the test samples were injected into femoral vein in an amount of 20 mg/kg to 4 to 5 test animals. Blood was taken from femoral vein 1, 2.5, 5, 10, 20, 40, 60, 120 and 180 minutes after administration and then subjected to a biological assay using agar well method to measure the blood concentration.

| SMILES | MIC (Escherichia coli 851E) [µg/mL] | MIC [1] [µg/mL] | MIC (Escherichia coli 10536) [µg/mL] | MIC [2] [µg/mL] | MIC (Staphylococcus aureus 77) [µg/mL] | MIC [3] [µg/mL] | MIC [4] [µg/mL] | MIC [5] [µg/mL] | MIC [6] [µg/mL] | MIC [7] [µg/mL] | MIC [8] [µg/mL] | MIC [10] [µg/mL] | MIC [11] [µg/mL] | MIC (Enterobacter cloacae P99) [µg/mL] | MIC [12] [µg/mL] | MIC [13] [µg/mL] | MIC [14] [µg/mL] | MIC [15] [µg/mL] | MIC [16] [µg/mL] | MIC [17] [µg/mL] | also measured |
| --- | --- | --- | --- | --- | --- | --- | --- | --- | --- | --- | --- | --- | --- | --- | --- | --- | --- | --- | --- | --- | --- |
| Nc1cc(N)[n+](C/C=C/C2=C(C(=O)[O-])N3C(=O)[C@@H](NC(=O)/C(=N\O[C@H](C(=O)O)c4ccc(O)c(O)c4)c4csc(N)n4)[C@H]3SC2)cn1 [Compound I-1a, 7-[(Z)-2-(2-aminothiazol-4-yl)-2-(α-carboxy-3,4-dihydroxybenzyloxyimino)acetamido]-3-[(E)-3-(4,6-diaminopyrimidinium-1-yl)-1-propen-1-yl]-3-cephem-4-carboxylate] | 0.031 (≈ 0.0453 µM) | 2 (≈ 2.93 µM) | ≤ 0.008 | 0.5 (≈ 0.731 µM) | 4 (≈ 5.85 µM) | 0.5 (≈ 0.731 µM) | 0.5 (≈ 0.731 µM) | 0.13 (≈ 0.19 µM) | 0.13 (≈ 0.19 µM) | 0.031 (≈ 0.0453 µM) | 4 (≈ 5.85 µM) | 1 (≈ 1.46 µM) | 1 (≈ 1.46 µM) | 32 (≈ 46.8 µM) | 0.016 (≈ 0.0234 µM) | 0.063 (≈ 0.0921 µM) | 0.25 (≈ 0.366 µM) | 0.13 (≈ 0.19 µM) | 64 (≈ 93.6 µM) | 4 | MIC ([9]; S. aureus giorgio, Muller-Hinton agar, 37° C., 20 hours): 0.5 µg/mL (≈ 0.731 µM); MIC (Escherichia coli 3190Y; E. coli 3190Y, Muller-Hinton agar, 37° C., 20 hours): 0.031 µg/mL (≈ 0.0453 µM); MIC (Proteus vulgaris 6059A): 0.063 µg/mL (≈ 0.0921 µM); MIC [18]: 0.13 µg/mL (≈ 0.19 µM); MIC [19]: 0.25 µg/mL (≈ 0.366 µM); MIC [20]: 64 µg/mL (≈ 93.6 µM); AUC [21]: 32700 ng·h/mL; half-life [21]: 34 min |
| Nc1cc[n+](C/C=C/C2=C(C(=O)[O-])N3C(=O)[C@@H](NC(=O)/C(=N\O[C@H](C(=O)O)c4ccc(O)c(O)c4)c4csc(N)n4)[C@H]3SC2)cn1 [Compound I-2a, 7-[(Z)-2-(2-aminothiazol-4-yl)-2-(α-carboxy-3,4-dihydroxybenzyloxyimino)acetamido]-3-[(E)-3-(4-aminopyrimidinium-1-yl)-1-propen-1-yl]-3-cephem-4-carboxylate] | 0.063 (≈ 0.0942 µM) | 1 (≈ 1.5 µM) | 0.016 (≈ 0.0239 µM) | 0.5 (≈ 0.748 µM) | 4 (≈ 5.98 µM) | 0.5 (≈ 0.748 µM) | 0.5 (≈ 0.748 µM) | 0.031 (≈ 0.0464 µM) | 0.063 (≈ 0.0942 µM) | 0.063 (≈ 0.0942 µM) | 4 (≈ 5.98 µM) | 4 (≈ 5.98 µM) | 0.5 (≈ 0.748 µM) | 8 (≈ 12 µM) | 0.03 (≈ 0.0449 µM) | 0.13 (≈ 0.194 µM) | 0.5 (≈ 0.748 µM) | 0.13 (≈ 0.194 µM) | 32 (≈ 47.9 µM) | 1 | MIC ([9]; 20 h): 0.25 µg/mL (≈ 0.374 µM); MIC (Escherichia coli 3190Y; 3190Y, 20 h): 0.063 µg/mL (≈ 0.0942 µM); MIC (Proteus vulgaris 6059A): 0.063 µg/mL (≈ 0.0942 µM); MIC [18]: 0.5 µg/mL (≈ 0.748 µM); MIC [19]: 0.25 µg/mL (≈ 0.374 µM); MIC [20]: 128 µg/mL (≈ 191 µM); AUC [21]: 53600 ng·h/mL; half-life [21]: 55 min |
